Laboratory results as given in patent US11584727B2, “2-thioxothiazolidin-4-one derivatives active as transthyretin ligands and uses thereof” (BSIM Therapeutics, S.A., priority 2014, dated 2023).

What was measured:
[1] = target: T1, wild type transthyretin (WT-TTR) (Homo sapiens, UniProt P02766); test: WT-TTR amyloid fibril formation assay (turbidimetry, acid-induced); format: biochemical; settings: pH 4.4, 72 hours; for Fibril Formation (%): WT-TTR 3.6 μM, 1:1 TTR-compound stoichiometry, 37° C., normalized to no-compound control (100%); for IC50: WT-TTR fixed at 3.6 μM, ten compound concentrations
T1 construct: made in house; host or cells: E. coli BL21 (DE3), pET23a plasmid
Procedure: (§1) The first set of evaluations is based on a fast, stagnant fibril formation assay that is used for the early screening of compounds, be they virtual screening hits or newly synthesized analogues. In this assay, a solution of the compound under test at 1.8, 3.6 or 7.2 μM is added to a solution of TTR at 3.6 μM, so that there is enough compound to bind to either one or both of TTR's binding sites. The pH of the resulting solution is then lowered to 4.4 to promote amyloidogenesis. The process of amyloid fibril formation over time is assessed by turbidimetry measurements at three different wavelengths (405, 450 and 490 nm, or at 550, 600 and 650 nm when the compound absorbs light at the previous wavelengths), using a spectrophotometer endowed with a BioTek microplate reader. The extent of fibril formation of each mixture is determined by normalizing a sample with the protein (TTR), in absence of compounds, which, at the end of 72 hours, represents 100% of amyloid fibril formation. In each experiment, each compound concentration is tested in triplicate. For each compound concentration and incubation time, the arithmetic mean of the triplicate experiments is calculated, as well as the arithmetic mean of the three measured wavelengths. High activity can be defined as a percentage of fibril formation below 10% at compound concentration 7.2 μM (TTR:compound stoichiometry 1:2) and below 40% at 3.6 μM (TTR:compound stoichiometry 1:1).
The in vitro activity of the compounds was assessed through a biochemical assay based on turbidimetry measurements, in which fibril formation is induced by acidification of the solution to pH 4.4 after incubation with the hit compound to be tested. The amount of amyloid fibrils formed is then monitored throughout 72 hours. Further details on this assay are provided in the “Evaluation of amyloid inhibition in vitro” subsection in “Materials and Methods”.
Experimental evaluation of the in vitro activity of virtual screening hits against amyloid fibril formation by TTR was carried out using a biochemical assay based on turbidimetry measurements. In this assay, fibril formation is induced by acidification of the solution to pH 4.4 after incubation with the hit compound to be tested. The amount of amyloid fibrils formed is monitored over 72 hours. Further details on the assay are provided in the “Evaluation of amyloid inhibition in vitro” subsection below.
(§2) Purchased virtual screening hits and all synthesized (optimization) derivatives were dissolved in DMSO to a final concentration of 10.8 mM to provide a primary stock solution. Several secondary stock solutions were prepared in DMSO by dilution of the primary stock solution and the concentrations were chosen depending on the effectiveness of the compound in inhibiting the TTR amyloid fibril formation.
(§3) The fibril formation assay was adapted to run in a high-throughput screening mode. For this purpose, 96-well microplates were used with a final assay volume of 100 μL.
(§4) One microLitre (μL) of different compound secondary stock solutions was added to 50 μL of a 7.2 μM wild type TTR (WT-TTR) or Val122Ile-TTR (V122I-TTR) solutions in 10 miliMolar (mM) sodium phosphate buffer, 100 mM KCl and 1 mM EDTA, pH 7.2, previously dialyzed against the same buffer solution. After 30 minutes of incubation at room temperature, the pH of the mixture was lowered to 4.4 with 49 μL of 200 mM acetate buffer, 100 mM KCl and 1 mM EDTA, pH 4.3.
(§5) The mixtures were incubated at 37° C. during 72 hours. Turbidity at 405 nm, 450 nm and 490 nm (or at 550, 600 and 650 nm when the test compound absorbs light at the previous wavelengths) was measured over time (0, 17, 24, 41, 48, 65 and 72 hours) using a BioTek Microplate Spectrophotometer to evaluate the extent of fibril formation. Immediately before the turbidity measurements, the mixtures were gently shacked during 1 minute to homogenize well and not damage the formed amyloid aggregates and fibrils.

[2] = target: Val122Ile transthyretin (V122I-TTR) (Homo sapiens, UniProt P02766, V142I); test: V122I-TTR amyloid fibril formation assay (turbidimetry, acid-induced); format: biochemical; settings: pH 4.4, 72 hours
Procedure: as §1, §2, §3, §4
as §5, with “fibrils. The final turbidity was calculated as an average of the three wavelengths measured.” for “fibrils.”
In addition, control samples containing TTR with no inhibitor and 1% DMSO, as well as inhibitor in absence of TTR were tested and analyzed.
The extent of amyloid fibril formation data was normalized to TTR in the absence of inhibitor, assigned to be 100% fibril formation (or 0% amyloid inhibition) at the end of the experiment.
The extent of amyloid fibril formation throughout 72 hours was determined as described in the “Evaluation of amyloid inhibition in vitro” subsection above.
IC50 values were calculated from the inhibition curves obtained by fitting the values by a nonlinear curve method using the OriginPro7 (OriginLab Corporation, USA).

[3] = HepG2 cell viability, resazurin reduction assay; format: cell-based; settings: human, HepG2 hepatoma cells, approximately 72 hours incubation, read-out: inhibitory dose (ID50), cell viability
Description: Cell viability of HepG2 hepatoma cells was quantified in order to assess the toxicity of the compounds at increasing concentrations. The used assay is described in detail in the “Experimental Evaluation of Cytotoxicity of Compounds using Cell-based Assays” section in “Materials and Methods”. This is a relevant assessment not just to discard potential concerns of liver damage (which is a problem reported for many drugs) but also because of the long-term nature of the treatments that patients suffering from TTR-mediated amyloidoses need to undertake.
Adherent human hepatoma cells HepG2 were cultured in DMEM (Dulbecco's Modified Eagle's Medium) with 10% fetal bovine serum (FBS), 100 U/mL penicillin, […] streptomycin, and 1 mM sodium pyruvate. The cells were grown in 75 cm^2 culture flasks at 37° C., in an atmosphere of 5% CO2, and subcultured twice a week using a trypsin-EDTA solution.
Upon 3 to 4 days of growth and reaching approximately 90% confluence, HepG2 cells were plated in 96-well microplates with cell density of 12×10^3 cells/well and in a volume of 100 μL per well.
The compounds are dissolved in DMSO and subsequently diluted in DMEM (in 9 intermediate […] concentrations). After adhesion of HepG2 cells to the microplates, […] 100 μL of each solution of intermediate compound concentration were added to each well (in quadruplicate). Positive controls were done with 10 wells containing only cells; solvent controls resulted from the analysis of the three highest DMSO concentrations tested and were carried out in triplicate.
After addition of the compounds to the cells, the microplates were incubated for approximately 72 hours at 37° C. in an atmosphere of 5% CO2 until the cell viability assay was performed.
The cell viability of HepG2 cells in the presence of test compounds was assessed by the resazurin reduction assay. Resazurin is a redox indicator that is converted into resorufin through reduction reactions of metabolically active cells. In the oxidized form it presents a purplish blue color, while the reduced form presents a purple-pink color.
A stock solution of 0.01% resazurin in PBS is diluted 1:10 in incomplete RPMI 1640 cell medium (without addition of antibiotics and FBS). After washing the cells with 200 μL PBS containing Ca^2+ and Mg^2+, 200 μL of resazurin 0.001% are added to the wells. Control runs with incomplete RPMI 1640 medium only and (without cells) are done in triplicate. […]
To quantify the reduction of resazurin to resorufin, microplate absorbance readings were taken at two wavelengths, 540 nm (reduced form) and 630 nm (oxidized form), in a Biotek spectrophotometer microplate reader. The percentage of viable cells at each compound concentration is determined using the formula: […]

FAP patients = settings: 18-month phase-III clinical trial; cited from earlier work
AD/TTR+/− mice = settings: cited from earlier work

Fibril Formation (%) [1] | IC50 [1] | Fibril Formation (%) ([2]; V122I-TTR 3.6 μM, 37° C.) | IC50 ([2]; V122I-TTR fixed at 3.6 μM, ten compound concentrations) | melting point | SMILES | IC50 at 72 h [3] | FAP patients with improvement of symptoms (FAP patients) | brain Abeta levels and deposition, cognitive function (AD/TTR+/− mice)
10% | 1170 ± 30 nM | 19% | 1610 nM | 262 to 264 °C | O=C(O)CN1C(=O)/C(=C/c2cc(Cl)c(O)c(Cl)c2)SC1=S [AT50-A03, (Z)-3-hydroxycarbonylmethyl-5-(3′,5′-dichloro-4′-hydroxyphenylmethylidene)-2-thioxothiazolidin-4-one] | > 400000 nM | – | –
28% | 1810 ± 400 nM | – | – | 221 to 222 °C | O=C(O)CN1C(=O)/C(=C/c2cc(F)c(O)c(F)c2)SC1=S [AT50-A06, (Z)-3-hydroxycarbonylmethyl-5-(3′,5′-difluoro-4′-hydroxyphenylmethylidene)-2-thioxothiazolidin-4-one] | > 400000 nM | – | –
– | – | – | – | – | CNC[C@H](O)[C@@H](O)[C@H](O)[C@H](O)CO.O=C(O)c1ccc2nc(-c3cc(Cl)cc(Cl)c3)oc2c1 [Tafamidis meglumine, N-methyl D-(2,3,4,5,6-pentahydroxy-hexyl)-ammonium; 2-(3,5-dichloro-phenyl)-benzoxazole-6-carboxylate] | – | approximately 60% | –
– | – | – | – | – | O=C(O)c1cc(-c2ccc(F)cc2F)cc(I)c1O [iododiflunisal] | – | – | decreased brain Abeta levels and deposition
